Test results taken from publication PMC5400620, “Preclinical therapeutic efficacy of a novel blood-brain barrier-penetrant dual PI3K/mTOR inhibitor with preferential response in PI3K/PTEN mutant glioma” (Oncotarget, 2017).
Where two headings read alike, the source gives them in different places.

Key:
[1] = test system: glioma cell lines and GICs; assay: CellTiter-Blue cell viability assay, 72 hours; assay type: cell-based; conditions: Homo sapiens
Protocol: To determine the cytotoxicity of DS in GBM cells and GICs in vitro, we used a colorimetric […] assay. […] To investigate the role of PI3K/PTEN, we expressed PTEN in PTEN-mutant U87 glioma cells.
A panel of GIC lines was treated with various concentrations of DS. Cells were treated with increasing concentrations of DS in triplicate wells for 72 hours, and cell viability was assessed by a CellTiter-Blue assay. The results shown are from a single experiment with three independent replicates. The graph depicts cell viability at 72 hours. Cell viability in the vehicle control was considered to be 100%.
Nine well characterized GBM cell lines and 22 patient-derived GIC lines (provided by Drs. Frederick. F. Lang and Erik. P. Sulman, Brain Tumor center, M. D. Anderson Cancer Center) with various P53, PIK3CA, and PTEN statuses were used for this study. GBM cells were maintained as monolayer cultures and GICs were cultured as GBM neurospheres in DMEM/F12 medium containing B27 supplement (Invitrogen, Grand Island, NY) and basic fibroblast growth factor, and epidermal growth factor (20 ng/ml each).
The antiproliferative effect of DS on cells growing in culture was determined using the CellTiter-Blue (Promega, Madison, WI) viability assay. […]

[2] = test system: PI3K/mTOR signaling (pAkt, pS6); assay: pAkt and pS6 in U87 tumors or brain after a single PO dose; assay type: in vivo, mice; conditions: single PO dose 6 mg/kg, compared with untreated animals
Protocol: Figure 1 A. and B. Plasma and brain concentration-time profile of DS7423 following a single PO administration (6 mg/kg) to nude mice. C. Western blot of mouse brains probed with antibodies against pAkt (Ser473) and pS6 (Ser235/236) in a time profile similar to that shown in A and B. Results are presented as the mean ± SE of six animals in each group.
To correlate DS brain concentration with the modulation of PI3K/mTOR signaling in U87 tumors, we used immunohistochemical analysis to study the signaling alterations in tumor sections derived from mice at similar time points following a single PO dose of DS (6 mg/kg). Tissue sections were probed with antibodies against pAkt and pS6. […] DS plasma and brain concentrations decreased after 24 hours, which correlated with an increase in pAkt and pS6.

[3] = test system: glioma cell lines U87 and U251; assay: cell viability with DS, TMZ and the combination; assay type: cell-based; conditions: Homo sapiens, U-251, TMZ 200 μM, DS 200 nM, alone or combined
Protocol: To investigate the ability of DS to modify the response of glioma cells to TMZ treatment, we evaluated the effects of TMZ (200 μM) alone, DS (200 nM) alone, and a combination of both TMZ and DS on the viability of the glioma cell lines U87 and U251 (Figure 5A).
The antiproliferative effect of DS on cells growing in culture was determined using the CellTiter-Blue (Promega, Madison, WI) viability assay. The mean drug concentration required to inhibit cell proliferation by 50% (IC50) compared with vehicle-treated controls was calculated using CalcuSyn Version 2.0 software (Great ShelfordCambridge, United Kingdom).

p110δ = p110δ (Homo sapiens, UniProt O00329); assay: class I PI3K HTRF assay, p110δ; assay type: biochemical
Protocol: (§1) DS7423 inhibits PI3K/mTOR activity likely binding to the ATP binding cleft of these enzymes and was tested against class I PI3K and other kinases using an HTRF assay format and direct measurement of substrate phosphorylation, respectively.

[4] = target: mixed lineage kinase 1 (MLK1) (Homo sapiens, UniProt P80192); assay: kinase panel, direct measurement of substrate phosphorylation, MLK1; assay type: biochemical; conditions: panel of 227 kinases; test concentration not given
Protocol: as §1

panel of 227 kinases = assay: representative panel of 227 kinases in biochemical assays; conditions: greater than 50% inhibition only against 2 other kinases
Protocol: as §1

[5] = target: T1, never-in-mitosis gene a (NIMA)-related kinase 2 (NEK2) (Homo sapiens, UniProt P51955); assay: kinase panel, direct measurement of substrate phosphorylation, NEK2; assay type: biochemical; conditions: panel of 227 kinases; test concentration not given
T1 sequence (P51955 1-445): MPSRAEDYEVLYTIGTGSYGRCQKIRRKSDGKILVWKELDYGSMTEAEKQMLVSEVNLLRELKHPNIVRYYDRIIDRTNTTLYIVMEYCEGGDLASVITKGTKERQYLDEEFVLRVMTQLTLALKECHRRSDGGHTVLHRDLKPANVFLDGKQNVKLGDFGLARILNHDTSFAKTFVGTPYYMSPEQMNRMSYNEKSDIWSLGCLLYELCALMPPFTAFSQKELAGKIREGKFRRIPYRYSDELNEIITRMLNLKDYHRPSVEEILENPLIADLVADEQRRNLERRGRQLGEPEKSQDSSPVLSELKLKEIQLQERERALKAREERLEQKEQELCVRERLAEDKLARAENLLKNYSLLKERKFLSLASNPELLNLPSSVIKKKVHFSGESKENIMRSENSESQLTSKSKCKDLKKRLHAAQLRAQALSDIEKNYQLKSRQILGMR
Protocol: as §1

Chain of mixed lineage kinase 1 (MLK1) (P80192 whole entry): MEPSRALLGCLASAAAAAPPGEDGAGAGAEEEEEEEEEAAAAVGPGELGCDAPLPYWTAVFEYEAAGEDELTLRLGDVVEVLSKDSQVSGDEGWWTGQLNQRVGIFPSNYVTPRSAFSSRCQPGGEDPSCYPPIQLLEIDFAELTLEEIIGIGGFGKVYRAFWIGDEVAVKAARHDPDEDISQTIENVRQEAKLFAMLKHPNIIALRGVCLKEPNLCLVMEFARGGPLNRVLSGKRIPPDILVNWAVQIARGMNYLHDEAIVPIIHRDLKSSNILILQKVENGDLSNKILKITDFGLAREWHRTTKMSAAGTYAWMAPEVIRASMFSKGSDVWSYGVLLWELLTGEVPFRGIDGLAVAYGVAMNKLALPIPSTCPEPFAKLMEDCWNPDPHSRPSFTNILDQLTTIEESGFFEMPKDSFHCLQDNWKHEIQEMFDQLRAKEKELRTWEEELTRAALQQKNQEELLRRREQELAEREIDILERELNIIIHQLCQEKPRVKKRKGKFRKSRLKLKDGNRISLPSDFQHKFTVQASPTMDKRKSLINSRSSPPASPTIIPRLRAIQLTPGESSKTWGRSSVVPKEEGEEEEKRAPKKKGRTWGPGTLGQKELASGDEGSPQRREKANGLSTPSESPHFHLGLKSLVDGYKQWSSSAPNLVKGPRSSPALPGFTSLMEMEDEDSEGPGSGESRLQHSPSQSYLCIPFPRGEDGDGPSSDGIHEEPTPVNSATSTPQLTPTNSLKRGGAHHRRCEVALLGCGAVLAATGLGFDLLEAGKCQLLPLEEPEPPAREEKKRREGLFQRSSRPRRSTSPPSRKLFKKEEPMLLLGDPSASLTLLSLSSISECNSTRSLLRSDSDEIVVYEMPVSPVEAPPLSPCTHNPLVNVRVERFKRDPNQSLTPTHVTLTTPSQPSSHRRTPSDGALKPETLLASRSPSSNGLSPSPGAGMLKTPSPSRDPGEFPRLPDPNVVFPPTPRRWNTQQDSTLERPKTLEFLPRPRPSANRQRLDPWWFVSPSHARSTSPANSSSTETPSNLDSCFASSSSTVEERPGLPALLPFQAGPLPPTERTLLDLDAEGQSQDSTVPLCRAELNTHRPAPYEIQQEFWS
Chain of p110δ (O00329 whole entry): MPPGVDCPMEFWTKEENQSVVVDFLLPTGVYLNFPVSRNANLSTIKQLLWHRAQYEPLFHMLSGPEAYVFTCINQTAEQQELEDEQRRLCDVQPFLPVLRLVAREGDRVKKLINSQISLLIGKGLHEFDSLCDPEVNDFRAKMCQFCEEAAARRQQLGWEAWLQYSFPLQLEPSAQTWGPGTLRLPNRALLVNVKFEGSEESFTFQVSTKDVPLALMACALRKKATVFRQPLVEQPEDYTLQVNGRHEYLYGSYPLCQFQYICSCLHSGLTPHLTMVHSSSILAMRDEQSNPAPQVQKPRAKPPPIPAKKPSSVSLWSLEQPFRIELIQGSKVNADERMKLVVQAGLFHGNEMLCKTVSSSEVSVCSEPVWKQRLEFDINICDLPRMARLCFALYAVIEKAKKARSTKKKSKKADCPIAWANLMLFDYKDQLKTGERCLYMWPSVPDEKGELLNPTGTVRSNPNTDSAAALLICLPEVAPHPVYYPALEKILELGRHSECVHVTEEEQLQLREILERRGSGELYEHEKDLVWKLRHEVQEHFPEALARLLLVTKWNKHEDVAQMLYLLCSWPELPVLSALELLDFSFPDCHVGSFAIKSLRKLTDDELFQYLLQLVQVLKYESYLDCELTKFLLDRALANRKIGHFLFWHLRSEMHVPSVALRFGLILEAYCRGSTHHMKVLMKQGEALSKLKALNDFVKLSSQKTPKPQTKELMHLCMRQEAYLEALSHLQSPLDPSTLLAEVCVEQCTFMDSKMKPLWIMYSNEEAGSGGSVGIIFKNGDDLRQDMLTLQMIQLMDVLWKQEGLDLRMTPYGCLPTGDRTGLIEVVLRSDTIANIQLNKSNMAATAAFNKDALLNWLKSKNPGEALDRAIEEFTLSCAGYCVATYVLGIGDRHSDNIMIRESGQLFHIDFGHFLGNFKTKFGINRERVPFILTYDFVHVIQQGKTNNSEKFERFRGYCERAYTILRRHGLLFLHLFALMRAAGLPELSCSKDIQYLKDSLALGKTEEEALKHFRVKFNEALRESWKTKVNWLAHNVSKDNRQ
Chain of p110δ (P27986 whole entry partner): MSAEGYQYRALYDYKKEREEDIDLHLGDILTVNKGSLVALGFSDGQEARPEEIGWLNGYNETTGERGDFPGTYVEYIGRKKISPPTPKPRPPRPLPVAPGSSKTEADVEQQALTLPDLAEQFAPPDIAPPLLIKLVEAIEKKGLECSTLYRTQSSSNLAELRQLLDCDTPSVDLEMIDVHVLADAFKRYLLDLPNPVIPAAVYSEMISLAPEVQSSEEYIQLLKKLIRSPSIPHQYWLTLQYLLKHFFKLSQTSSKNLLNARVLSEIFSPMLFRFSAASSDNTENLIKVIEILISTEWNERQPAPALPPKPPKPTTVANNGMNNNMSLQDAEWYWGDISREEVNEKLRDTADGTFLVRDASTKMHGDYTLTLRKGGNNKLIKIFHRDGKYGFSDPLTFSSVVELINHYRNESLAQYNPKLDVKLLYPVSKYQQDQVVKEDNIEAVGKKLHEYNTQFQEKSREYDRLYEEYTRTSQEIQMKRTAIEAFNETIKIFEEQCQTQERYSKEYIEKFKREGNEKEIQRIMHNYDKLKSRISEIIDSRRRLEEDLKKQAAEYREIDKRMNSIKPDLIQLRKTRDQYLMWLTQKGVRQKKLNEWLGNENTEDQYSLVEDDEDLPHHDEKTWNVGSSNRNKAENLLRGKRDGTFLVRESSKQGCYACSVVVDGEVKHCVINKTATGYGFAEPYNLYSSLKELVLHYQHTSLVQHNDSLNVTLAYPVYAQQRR

## CC(=O)N1CCN(c2nc3c(N4CCOCC4)nc(-c4cnc(N)nc4)nc3n2CC(F)(F)F)C[C@H]1C [DS, 1-{(2R)-4-[2-(2-Aminopyrimidin-5-yl)-6-(morpholin-4-yl)-9-(2,2,2-trifluoroethyl)-9H-purin-8-yl]-2-methylpiperazin-1-yl}ethan-1-one]
[1]; Glioma cell, GBM cells and GICs, 72 hours exposure, read-out: half maximal inhibitory concentration range of cells considered sensitive
  IC50: 150 to 265 nM
[1]; 9 glioma cell lines and 22 GIC lines, 72 hours, read-out: mean 50% inhibitory concentration, growth of glioma tumor cell lines and GICs
  IC50: < 250 nM
[2]
  pAkt and pS6 staining in U87 tumors: marked reduction
[3]
  viability at 0.2 µM: 63%
p110δ
  IC50: 262 nM
[4]
  inhibition of MLK1: greater than 50%
Panel of 227 kinases
  inhibition of a representative panel of 227 kinases: poorly inhibited
[5]
  inhibition of NEK2: greater than 50%
